Results published in patent US10568344B2, “Methods of improving animal performance” (Novozymes A/S, priority 2015, dated 2020).
Like-named read-outs stand apart in the source and are kept apart here. Marks after values point to notes of the source that are not given here.

Columns and labels:
[1] = In vivo broiler trial 1, growth performance; set-up: species or system male broiler chickens (ROSS PM3); settings: for Improvement of FCR compared to the control diet / Improvement of weight gain compared to the control diet: 10 mg/kg; for FCR / FCR, Relative to C (%) / Feed intake / Feed intake, Relative to C (%) / Weight gain / Weight gain, Relative to C (%): 10 mg/kg feed
[2] = In vivo broiler trial 2, growth performance; set-up: species or system male broiler chickens; settings: for FCR / FCR, Relative to C (%) / Feed intake / Feed intake, Relative to C (%) / Weight gain / Weight gain, Relative to C (%): 10 mg/kg feed; for Improvement of FCR compared to the control diet / Improvement of weight gain compared to the control diet: 10 mg/kg
Description: No additional enzymes (e.g. phytase) were added to the feed. The experimental diets (Starter and Grower) were based on soybean meal, wheat and rye (12%) as main ingredients (Table 6). The diets were formulated to contain 222 g crude protein and 12.5 MJ/kg MEN for the starter period and 204 g crude protein and 12.7 MJ/kg MEN for the grower period.

[3] = In vivo broiler trial 3, growth performance; set-up: species or system male broiler chickens; Motality: unit not given here
Description: The in vivo trial was carried out as described in example 7, except the feed was supplemented with the GH25 lysozyme (SEQ ID NO: 1) at 12.5 or 25 mg per kg feed, the GH24 lysozyme (SEQ ID NO: 4) at 12.5 or 25 mg per kg feed or with Avilamycin at an inclusion level of 10 mg/kg. No additional enzymes (e.g. phytase) were added to the feed. The experimental diets (Starter, Grower and Finisher) were based on soybean meal, wheat and rye (12%) as main ingredients (Table 8). The diets were formulated to contain 225 g crude protein and 12.5 MJ/kg MEN for the starter period, 215 g crude protein and 12.8 MJ/kg MEN for the grower period and 205 g crude protein and 13.0 MJ/kg MEN for the finisher period.

[4] = In vivo piglet trial, growth performance; set-up: species or system weaned piglets
Description: The trial was performed from Oct. 23 to Dec. 4, 2014 at the Research Center for Animal Nutrition (DSM Nutritional Products France, F-68305 Village-Neuf) according to the official French guidelines for experiments with live animals. One hundred and four castrated male crossbred (Large-White (female)×Redon (male)) weaned piglets having 28 days of age supplied by the commercial farm “[…] du Rhin” located in Balgau (France), were used in a 42-day experiment. The initial bodyweight of the piglets was 7.88±0.675 kg. They were sorted by body weight into 32 groups of 3 or 4 piglets and randomly allotted to each dietary treatment. Each group of animals was placed in one flat-deck cages and allocated to one of the different treatments. Each treatment was replicated with 8 cages using a total of 26 animals (6 cages of 3 animals/treatment and 2 cages of 4 animals/treatment) per treatment. […] Animals were housed in an environmentally controlled room. Room temperature was initially 27° C. and was lowered weekly by about 2° C. until 21-22° C. and relative humidity percentage was 50%. The experimental diets (Pre-Starter and Starter) were fed ad libitum in two feeding phases from day 0 to 14 (phase 1, Pre-starter) and day 14 to 42 (phase 2, Starter). The ingredient composition and the calculated nutrient levels of the experimental diets for phases 1 and 2 are presented in table 11. Both diets were formulated to meet the animals' requirements according NRC (2012) and were fed in pelleted form. Pelleting conditions were at 70° C. for 30 seconds. […] No additional enzymes (e.g. phytase) were added to the feed. […] Appropriate amount of the liquid preparations of lysozyme was diluted in water and sprayed onto the respective pelleted feed to get the final concentrations in the feed corresponding to the different treatments. For procedural balance of all treatments the same volume of water were also sprayed onto the pellets of the control diets. Body weight of the individual animals and feed consumption per pen were recorded on days 14 and 42 of the study. […] The experimental unit was the piglet, except for ADFI and FCR which were measured by cage, and in both cases, treatment was used as class variable. One-factorial ANOVA and Student-Newman-Keuls test was used to assess differences among means in treatment groups.

[5] = test system: Clostridium perfringens DSM756; type: cell-based; settings: for Diameter of clearing zone: lysozymes 100 μg/ml, bacitracin 50 μg/ml
[6] = test system: Exiguobacterium undae (DSM14481); assay: Lysozyme activity turbidity assay (optical density drop); type: biochemical; settings: pH 6
[7] = test system: Micrococcus lysodeikticus ATTC No. 4698; assay: as above; settings: pH 6
[8] = Finisher (d 36-42), 10 mg/kg feed
[9] = Grower (d 22-36), 10 mg/kg feed
[10] = Starter (d 1-22), 10 mg/kg feed
[11] = Whole period (d 1-42), 10 mg/kg feed

COC[C@H]1O[C@@H](OC2OC[C@@H]3O[C@]4(O[C@H]3[C@H]2OC(=O)C(C)C)O[C@H](C)[C@@](O)(C(C)=O)[C@@H]2OCO[C@H]24)[C@@H](OC)[C@@H](O)[C@@H]1O[C@@H]1O[C@H](C)[C@H](OC)[C@H](O[C@H]2C[C@@]3(C)OC4(C[C@@H](O)[C@H](O[C@H]5C[C@@H](O)[C@H](OC(=O)c6c(C)c(Cl)c(O)c(Cl)c6OC)[C@@H](C)O5)[C@@H](C)O4)O[C@@H]3[C@@H](C)O2)[C@H]1O (stereo partly drawn) [Avilamycin, reference compound]
Improvement of FCR compared to the control diet [1]: 2.3%
FCR ([1]; Grower (d 22-36)): 1.694^abc
FCR, Relative to C (%) ([1]; Grower (d 22-36)): 97.7%
Feed intake ([1]; Grower (d 22-36)): 2976^ab g/b
Feed intake, Relative to C (%) ([1]; Grower (d 22-36)): 97.6%
Weight gain ([1]; Grower (d 22-36)): 1757 g/b
Weight gain, Relative to C (%) ([1]; Grower (d 22-36)): 99.8%
FCR ([1]; Starter (d 1-22)): 1.695^c
FCR, Relative to C (%) ([1]; Starter (d 1-22)): 93.3%
Feed intake ([1]; Starter (d 1-22)): 1943 g/b
Feed intake, Relative to C (%) ([1]; Starter (d 1-22)): 97.4%
Weight gain ([1]; Starter (d 1-22)): 1147 g/b
Weight gain, Relative to C (%) ([1]; Starter (d 1-22)): 104.1%
FCR ([1]; Whole period (d 1-36)): 1.694^bc
FCR, Relative to C (%) ([1]; Whole period (d 1-36)): 96%
Feed intake ([1]; Whole period (d 1-36)): 4918^ab g/b
Feed intake, Relative to C (%) ([1]; Whole period (d 1-36)): 97.5%
Weight gain ([1]; Whole period (d 1-36)): 2903 g/b
Weight gain, Relative to C (%) ([1]; Whole period (d 1-36)): 101.5%
Improvement of FCR compared to the control diet ([1]; day 1 to day 36): 4%
Improvement of weight gain compared to the control diet ([1]; day 1 to day 36): 1.5%
Improvement of weight gain compared to the control diet ([1]; starter period): 4.1%
FCR ([2]; Grower (d 22-36)): 1.621^b
FCR, Relative to C (%) ([2]; Grower (d 22-36)): 94.2%
Feed intake ([2]; Grower (d 22-36)): 2599 g/b
Feed intake, Relative to C (%) ([2]; Grower (d 22-36)): 95.2%
Weight gain ([2]; Grower (d 22-36)): 1605 g/b
Weight gain, Relative to C (%) ([2]; Grower (d 22-36)): 101.2%
FCR ([2]; Starter (d 1-22)): 1.421^a
FCR, Relative to C (%) ([2]; Starter (d 1-22)): 103%
Feed intake ([2]; Starter (d 1-22)): 1517^a g/b
Feed intake, Relative to C (%) ([2]; Starter (d 1-22)): 103.1%
Weight gain ([2]; Starter (d 1-22)): 1070 g/b
Weight gain, Relative to C (%) ([2]; Starter (d 1-22)): 100.2%
FCR ([2]; Whole period (d 1-36)): 1.537^c
FCR, Relative to C (%) ([2]; Whole period (d 1-36)): 97.4%
Feed intake ([2]; Whole period (d 1-36)): 4111 g/b
Feed intake, Relative to C (%) ([2]; Whole period (d 1-36)): 98.1%
Weight gain ([2]; Whole period (d 1-36)): 2675 g/b
Weight gain, Relative to C (%) ([2]; Whole period (d 1-36)): 100.8%
Improvement of FCR compared to the control diet ([2]; day 1 to day 36): 2.6%
Improvement of FCR compared to the control diet ([2]; grower period): 5.8%
Improvement of weight gain compared to the control diet ([2]; grower period): 1.2%
Improvement of FCR compared to the control diet ([2]; starter period): No improvement
Improvement of weight gain compared to the control diet ([2]; starter period): No improvement
FCR [3, 8]: 1.982
FCR, Relative to C (%) [3, 8]: 101.1%
Feed intake [3, 8]: 1460 g/b
Feed intake, Relative to C (%) [3, 8]: 98.2%
Weight gain [3, 8]: 738 g/b
Weight gain, Relative to C (%) [3, 8]: 97.0%
FCR [3, 9]: 1.683
FCR, Relative to C (%) [3, 9]: 97.7%
Feed intake [3, 9]: 2242 g/b
Feed intake, Relative to C (%) [3, 9]: 98.1%
Weight gain [3, 9]: 1334 g/b
Weight gain, Relative to C (%) [3, 9]: 100.4%
FCR [3, 10]: 1.452
FCR, Relative to C (%) [3, 10]: 100.8%
Feed intake [3, 10]: 1593 g/b
Feed intake, Relative to C (%) [3, 10]: 101.0%
Weight gain [3, 10]: 1102 g/b
Weight gain, Relative to C (%) [3, 10]: 100.6%
EPEF [3, 11]: 397
EPEF, Relative to C (%) [3, 11]: 95.0%
FCR [3, 11]: 1.669
FCR, Relative to C (%) [3, 11]: 99.3%
Feed intake [3, 11]: 5312 g/b
Feed intake, Relative to C (%) [3, 11]: 99.3%
Motality [3, 11]: 12.5
Weight gain [3, 11]: 3184 g/b
Weight gain, Relative to C (%) [3, 11]: 99.9%
EPEF worse than NC diet by ([3]; whole period, 10 mg/kg): 5.0%
FCR improvement compared to NC diet ([3]; whole period, 10 mg/kg): 0.7%

O=C(O)c1ccccc1 [VevoVital, benzoic acid]
ADFI, % relative NC ([4]; day 0-14, 5000 mg/kg feed): 98.6%
ADFI, Mean ([4]; day 0-14, 5000 mg/kg feed): 355 g/day
ADWG, % relative NC ([4]; day 0-14, 5000 mg/kg feed): 104.8%
ADWG, Mean ([4]; day 0-14, 5000 mg/kg feed): 304 g/day
FCR, % relative NC ([4]; day 0-14, 5000 mg/kg feed): 94.2%
FCR, Mean ([4]; day 0-14, 5000 mg/kg feed): 1.168^a
ADFI, % relative NC ([4]; day 0-42, 5000 mg/kg feed): 96.6%
ADFI, Mean ([4]; day 0-42, 5000 mg/kg feed): 709^ab g/d
ADWG, % relative NC ([4]; day 0-42, 5000 mg/kg feed): 105.4%
ADWG, Mean ([4]; day 0-42, 5000 mg/kg feed): 526 g/day
EPEF, % relative NC ([4]; day 0-42, 5000 mg/kg feed): 116.2%
EPEF, Mean ([4]; day 0-42, 5000 mg/kg feed): 394
FCR, % relative NC ([4]; day 0-42, 5000 mg/kg feed): 90.4%
FCR, Mean ([4]; day 0-42, 5000 mg/kg feed): 1.342^a
ADFI, % relative NC ([4]; day 14-42, 5000 mg/kg feed): 95.3%
ADFI, Mean ([4]; day 14-42, 5000 mg/kg feed): 886^ab g/d
ADWG, % relative NC ([4]; day 14-42, 5000 mg/kg feed): 105.8%
ADWG, Mean ([4]; day 14-42, 5000 mg/kg feed): 638 g/day
FCR, % relative NC ([4]; day 14-42, 5000 mg/kg feed): 90.5%
FCR, Mean ([4]; day 14-42, 5000 mg/kg feed): 1.398^a
Improvement on FCR compared to the negative control ([4]; overall period (day 0 to day 42), 5000 mg/kg): 9.6%
Improvement of ADWG compared to NC ([4]; pre-starter period, 5000 mg/kg): 4.8%
Improvement to FCR compared to NC ([4]; starter period, day 15 to day 42, 5000 mg/kg): 9.5%
Improvement of ADWG compared to NC ([4]; starter period, 5000 mg/kg): 5.8%
Improvement of ADWG compared to NC ([4]; whole period, 5000 mg/kg): 5.4%

Bacitracin zinc salt [reference compound]
Diameter of clearing zone ([5]; Experiment 1, 1/2 MHB pH 6): 13 mm
Diameter of clearing zone ([5]; Experiment 1, 1/10 MHB pH 7): 23 mm
Diameter of clearing zone ([5]; Experiment 2, 1/2 MHB pH 6): 11 mm
Diameter of clearing zone ([5]; Experiment 2, 1/10 MHB pH 7): 20 mm

SEQ ID NO: 5: mature amino acid sequence of a wild type GH22 lysozyme from Gallus gallus (hen egg white lysozyme), Sigma 62971 [reference compound]
Lysozyme activity as measured by Optical Density Drop [6]: + (pH 6)
Inhibition zone ([5]; 1/10 MHB, pH7, both experiments): 9-11 mm
Diameter of clearing zone ([5]; Experiment 1, 1/2 MHB pH 6): 0 mm
Diameter of clearing zone ([5]; Experiment 1, 1/10 MHB pH 7): 11 mm
Diameter of clearing zone ([5]; Experiment 2, 1/2 MHB pH 6): 0 mm
Diameter of clearing zone ([5]; Experiment 2, 1/10 MHB pH 7): 9 mm
Clearing zone diameter ([5]; ½ MHB, pH 6, both experiments): no zone of inhibition
Lysozyme activity as measured by Optical Density Drop [7]: +++ (pH 6)
